Legend:
[1] = tested on: multiple myeloma cell line U266B1; assay: U266 Cell Viability Assay; type: cell-based, human; details: Homo sapiens, U-266, 48 h, U266B1 cells, Celltiter-Glo
How it was run: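 Cells grown in RPMI 1640 with 10% FBS, 2 mM glutamine and penicillin/streptomycin were exposed to compound dilutions in DMSO/media for 48 hours at 37° C., 5% CO2. Viability was read by CellTiter-Glo luminescence. Undefined stereocentres mean data for stereoisomer mixtures.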

[2] = tested on: PD1-ss+10aa/Gaussia Luciferase; assay: Dox-Induced PD1-ss-Gluc Assay; type: cell-based; details: 24 hr Dox induction; 293FRT/TO cells; read-out: 24 hr Dox Inducible PD1ssGluc 293FRT/TO: Mean IC50
How it was run: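 Flp-In 293 T-REx cells stably carrying a doxycycline-inducible Gaussia luciferase fused to the PD1 signal sequence plus 10 aa were plated the day before. Compound dilutions in DMSO/media containing doxycycline were then added and incubated at 37 °C, 5% CO2. Data for undefined stereochemistry refer to stereoisomer mixtures.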

[3] = Liver Microsome Stability Assay (rat); details: rat liver microsomes, with NADPH, 1.0 uM compound
Procedure: (§1) Stability of a compound was assessed in the presence of liver microsomes from various sources—mouse, rat, monkey and human liver microsomes. 1.0 uM compound, 0.4% DMSO in 0.1 M Potassium Phosphate with 1.0 mg/mL liver microsomes, were incubated at 37° C. with or without 1 mM NADPH. The samples were quenched at 0, and 30 minutes.

[4] = tested on: HER3-ss+4aa/Gaussia Luciferase; assay: Dox-Induced Her3-ss-Gluc Assay; type: cell-based; details: 24 hr Dox induction; 293FRT/TO cells; read-out: 24 hr Dox Inducible Her3(ss + 4)Gluc 293FRT/TO: Mean IC50
How it was run: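 Stable Flp-In 293 T-REx line expressing Gaussia luciferase fused to the HER3 signal sequence plus 4 amino acids under tetracycline-regulated (T-REx) control. Cells plated the day before, then treated with compound dilutions in DMSO/media containing doxycycline and incubated at 37° C., 5% CO2.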

[5] = tested on: multiple myeloma cell line NCI-H929; assay: H929 Cell Viability Assay; type: cell-based, human; details: Homo sapiens, NCI-H929, 48 h, NCI-H929 cells, Celltiter-Glo
How it was run: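 NCI-H929 cells, resuspended in RPMI 1640 with 10% FBS and 2 mM glutamine, were treated with compound dilutions in DMSO/media and incubated 48 hours at 37° C, 5% CO2. Viability was read by CellTiter-Glo luminescence. Compounds drawn without stereochemistry were tested as stereoisomer mixtures.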

[6] = Liver Microsome Stability Assay (human); details: human liver microsomes, with NADPH, 1.0 uM compound
Procedure: as §1

[7] = Liver Microsome Stability Assay (mouse); details: mouse liver microsomes, with NADPH, 1.0 uM compound
Procedure: as §1

[8] = tested on: IL-2-FL/Gaussia Luciferase; assay: Dox Induced IL2-FL-Gluc Assay; type: cell-based; details: for IC50: 24 hr Dox induction, 293FRT/TO cells, read-out: 24 hr Dox Inducible IL2FLGluc 293FRT/TO: Mean IC50; for 24 hr Dox Inducible IL2FLGluc 293FRT/TO: IL2/PD1: ratio of IL2FLGluc IC50 to PD1ssGluc IC50
How it was run: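 Flp-In 293 T-REx cells stably carrying doxycycline-inducible full-length IL-2 (aa 1-153) fused at its C-terminus to Gaussia luciferase, selected with hygromycin and blasticidin. Cells were plated the day before, then treated with compounds in DMSO/media containing doxycycline at 37° C, 5% CO2.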

[9] = Liver Microsome Stability Assay (monkey); details: monkey liver microsomes, with NADPH, 1.0 uM compound
Procedure: as §1

[10] = tested on: TNFα-FL/Gaussia Luciferase; assay: Dox Induced TNFα-FL-Gluc Assay; type: cell-based; details: for IC50: 24 hr Dox induction, 293FRT/TO cells, read-out: 24 hr Dox Inducible TNFaFLGluc 293FRT/TO: Mean IC50; for 24 hr Dox Inducible TNFaFLGluc 293FRT/TO: TNF/PD1: ratio of TNFaFLGluc IC50 to PD1ssGluc IC50
How it was run: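 Flp-In 293 T-REx cells stably expressing full-length TNFα (aa 1-233) fused at its C-terminus to Gaussia luciferase under tetracycline-regulated control were plated the day before assay. Compound dilutions in DMSO/media containing doxycycline were added and incubated at 37 °C, 5% CO2. Unspecified stereochemistry denotes stereoisomer mixtures.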

Row | SMILES | EC50 [1] [µM] | IC50 [2] [µM] | Liver Microsome Stability (Multiple Species): Rat - % Remaining after 30 min w/NADPH [3] [%] | IC50 [4] [µM] | EC50 [5] [µM] | Liver Microsome Stability (Multiple Species): Human - % Remaining after 30 min w/NADPH [6] [%] | Liver Microsome Stability (Multiple Species): Mouse - % Remaining after 30 min w/NADPH [7] [%] | IC50 [8] [µM] | 24 hr Dox Inducible IL2FLGluc 293FRT/TO: IL2/PD1 [8] | Liver Microsome Stability (Multiple Species): Monkey - % Remaining after 30 min w/NADPH [9] [%] | IC50 [10] [µM] | 24 hr Dox Inducible TNFaFLGluc 293FRT/TO: TNF/PD1 [10]
1 | CCc1cc(/C=C/c2csc(NC(=O)c3cccn3Cc3ccnc(F)c3)n2)no1 [Compound B89, (E)-N-(4-(2-(5-ethylisoxazol-3-yl)vinyl)thiazol-2-yl)-1-((2-fluoropyridin-4-yl)methyl)-1H-pyrrole-2-carboxamide] | > 25 | 0.271 | 1.11 | 1.1 | > 25 | 0.4 | 2.24 | 1.65 | 6.1 | 0.17 | > 25 | >92.2
2 | CC(C)c1cc(/C=C/c2csc(NC(=O)c3cccn3Cc3ccnc(F)c3)n2)no1 [Compound B90, (E)-1-((2-fluoropyridin-4-yl)methyl)-N-(4-(2-(5-isopropylisoxazol-3-yl)vinyl)thiazol-2-yl)-1H-pyrrole-2-carboxamide] | > 25 | 0.167 | 5.78 | 0.69 | 22.8 | 0.87 | 10.8 | 1.17 | 7 | 0.54 | > 25 | >150
3 | CC(=O)N1CCC(n2cnc(/C=C/c3csc(NC(=O)c4cccn4Cc4ccnc(F)c4)n3)c2)CC1 [Compound B91, (E)-N-(4-(2-(1-(1-acetylpiperidin-4-yl)-1H-imidazol-4-yl)vinyl)thiazol-2-yl)-1-((2-fluoropyridin-4-yl)methyl)-1H-pyrrole-2-carboxamide] | > 25 | 6.05 | 44.2 | > 25 | > 25 | 0.22 | 33.9 | > 25 | >4.1 | 0.24 | > 25 | >4.13
4 | O=C(Nc1nc(/C=C/c2cn(C3CCOCC3)cn2)cs1)c1cccn1Cc1ccnc(F)c1 [Compound B92, (E)-1-((2-fluoropyridin-4-yl)methyl)-N-(4-(2-(1-(tetrahydro-2H-pyran-4-yl)-1H-imidazol-4-yl)vinyl)thiazol-2-yl)-1H-pyrrole-2-carboxamide] | > 25 | 0.0724 | 2.02 | > 25 | 22.8 | 0.19 | 6.38 | 12.1 | 170 | 0.04 | > 25 | >345
5 | CC(C)n1cc(/C=C/c2csc(NC(=O)c3cccn3Cc3ccnc(F)c3)n2)nc1C#N [Compound B93, (E)-N-(4-(2-(2-cyano-1-isopropyl-1H-imidazol-4-yl)vinyl)thiazol-2-yl)-1-((2-fluoropyridin-4-yl)methyl)-1H-pyrrole-2-carboxamide] | > 25 | 0.686 | 11.5 | 2.73 | 20.9 | 0.85 | 12.7 | 11 | 16 | 0.03 | > 25 | >36.4
6 | CC(C)c1cc(/C=C/c2csc(NC(=O)c3cccn3Cc3ccnc(F)c3)n2)n(C)n1 [Compound B94, (E)-1-((2-fluoropyridin-4-yl)methyl)-N-(4-(2-(3-isopropyl-1-methyl-1H-pyrazol-5-yl)vinyl)thiazol-2-yl)-1H-pyrrole-2-carboxamide] | > 25 | 1.02 | 31.1 | 0.877 | > 25 | 0.55 | 20 | > 25 | >24 | 0.06 | > 25 | >24.5
7 | CC(C)n1ccnc1/C=C/c1csc(NC(=O)c2cccn2Cc2ccnc(F)c2)n1 [Compound B95, (E)-1-((2-fluoropyridin-4-yl)methyl)-N-(4-(2-(1-isopropyl-1H-imidazol-2-yl)vinyl)thiazol-2-yl)-1H-pyrrole-2-carboxamide] | > 25 | 0.782 | 0.54 | > 25 | > 25 | 0.04 | 0.08 | > 25 | >32 | 0.03 | > 25 | >32.0
8 | CC(C)c1cc(/C=C/c2csc(NC(=O)c3cccn3Cc3ccnc(F)c3)n2)nn1C [Compound B96, (E)-1-((2-fluoropyridin-4-yl)methyl)-N-(4-(2-(5-isopropyl-1-methyl-1H-pyrazol-3-yl)vinyl)thiazol-2-yl)-1H-pyrrole-2-carboxamide] | > 25 | 0.304 | 13.6 | 3.3 | 20.7 | 0.79 | 8.33 | 7.59 | 25 | 0.19 | > 25 | >82.3
